The text below walks through data of patent US6218379A, “Tricyclic carbacephems” (Hoffmann-la Roche Inc., priority 1996, dated 2001).

Structures are written as SMILES. ≈ marks a conversion by molar mass, not a printed value. Counter-ions that a name gives are not always drawn.

The test system of test [1] is Staphylococcus aureus 887. The test is described as follows: Antibacterial activity in vitro (MIC) against Staphylococcus aureus 887. The format is cell-based. The note with it: read-out: MIC S. aureus 887. How it is done: (§1) The minimum inhibitory concentration in vitro (MIC in μg/ml) of a compound of formula I against Citrobacter freundii 1982 and Staphylococcus aureus 887 is measured and compiled in Table 2.

In test [2] the test system is Citrobacter freundii 1982. The test is described as follows: Antibacterial activity in vitro (MIC) against Citrobacter freundii 1982. Type of test: cell-based. To be noted: read-out: MIC C. freundii 1982. How it is done: as §1

For the compound `CC(=O)N1C[C@H]2CC(/C=C3\CCN(c4ccc[n+](CC(N)=O)c4)C3=O)=C(C(=O)[O-])N3C(=O)[C@@H]1[C@@H]23` [Example 40, (E)-(1aS,3aR,6bR)-2-Acetyl-5-[1-(1-carbamoylmethyl-pyridin-1-ium-3-yl)-2-oxo-pyrrolidin-3-ylidenemethyl]-1-oxo-1a,2,3,3a,4,6b-hexahydro-1H-2,6a-diaza-cyclobut[cd]indene-6-carboxylate], the results for the minimal inhibitory concentration (MIC) in test [1] and in test [2] were 2 µg/mL (≈ 4.3 µM) and 4 µg/mL (≈ 8.59 µM), respectively.

`O=C(O)C1=C(/C=C/c2ccccc2)C[C@@H]2CN[C@@H]3C(=O)N1[C@H]23` [Example 49, (E)-(1aS,3aR,6bR)-1-Oxo-5-styryl-1a,2,3,3a,4,6b-hexahydro-1H-2,6a-diaza-cyclobut[cd]indene-6-carboxylic acid trifluoroacetate]: the results for the MIC in test [1] and in test [2] were 8 µg/mL and 64 µg/mL, respectively.

As to `O=C(O)C1=C(/C=C/c2ccccn2)C[C@@H]2CN[C@@H]3C(=O)N1[C@H]23` [Example 50, (E)-(1aS,3aR,6bR)-1-Oxo-5-(2-pyridin-2-yl-vinyl)-1a,2,3,3a,4,6b-hexahydro-1H-2,6a-diaza-cyclobut[cd]indene-6-carboxylic acid trifluoroacetate (1:1.58)], the minimal inhibitory concentration (MIC) in test [1] and in test [2] was 64 µg/mL in each case.

For `O=C(O)C1=C(/C=C/c2ccncc2)C[C@@H]2CN[C@@H]3C(=O)N1[C@H]23` [Example 51, (E)-(1aS,3aR,6bR)-1-Oxo-5-(2-pyridin-4-yl-vinyl)-1a,2,3,3a,4,6b-hexahydro-1H-2,6a-diaza-cyclobut[cd]indene-6-carboxylic acid trifluoroacetate (1:1.45)], the minimum inhibitory concentration (MIC) (as a rule, the lowest concentration found to suppress growth) was found to be 4 µg/mL in test [1] and 64 µg/mL in test [2].

For the compound `O=C(O)C1=C(/C=C/c2ccc(O)cc2)C[C@@H]2CN[C@@H]3C(=O)N1[C@H]23` [Example 52, (E)-(1aS,3aR,6bR)-1-Oxo-5-[2-(4-hydroxy-phenyl)-vinyl]-1a,2,3,3a,4,6b-hexahydro-1H-2,6a-diaza-cyclobut[cd]indene-6-carboxylic acid trifluoroacetate (1:0.83)], the minimal inhibitory concentration (MIC) in test [1] came to 4 µg/mL; in test [2] it was 64 µg/mL.

Turning to `O=C(O)C1=C(/C=C/c2cccnc2)C[C@@H]2CN[C@@H]3C(=O)N1[C@H]23` [Example 53, (E)-(1aS,3aR,6bR)-1-Oxo-5-(2-pyridin-3-yl-vinyl)-1a,2,3,3a,4,6b-hexahydro-1H-2,6a-diaza-cyclobut[cd]indene-6-carboxylic acid trifluoroacetate (1:1.5)], the MIC in test [1] was 2 µg/mL; in test [2] it was 64 µg/mL.

Consider `O=C(O)C1=C(/C=C/c2ccc3ccccc3n2)C[C@@H]2CN[C@@H]3C(=O)N1[C@H]23` [Example 54, (E)-(1aS,3aR,6bR)-1-Oxo-5-(2-quinolin-2-yl-vinyl)-1a,2,3,3a,4,6b-hexahydro-1H-2,6a-diaza-cyclobut[cd]indene-6-carboxylic acid trifluoroacetate (1:1.5)], for which the MIC in test [1] and in test [2] was 64 µg/mL throughout.

Consider `O=C(O)C1=C(/C=C/c2cnc3ccccc3c2)C[C@@H]2CN[C@@H]3C(=O)N1[C@H]23` [Example 55, (E)-(1aS,3aR,6bR)-1-Oxo-5-(2-quinolin-3-yl-vinyl)-1a,2,3,3a,4,6b-hexahydro-1H-2,6a-diaza-cyclobut[cd]indene-6-carboxylic acid trifluoroacetate (1:1.4)], for which the values for the MIC in test [1] and in test [2] were 4 µg/mL and 64 µg/mL, respectively.

Consider `O=CN1C[C@H]2CC(/C=C/c3ccccn3)=C(C(=O)O)N3C(=O)[C@@H]1[C@@H]23` [Example 56, (E)-(1aS,3aR,6bR)-2-Formyl-1-oxo-5-(2-pyridin-2-yl-vinyl)-1a,2,3,3a,4,6b-hexahydro-1H-2,6a-diaza-cyclobut[cd]indene-6-carboxylic acid sodium salt (1:1)], for which the results for the minimum inhibitory concentration (MIC) in test [1] and in test [2] were 1 µg/mL and 4 µg/mL, respectively.

`CC(=O)N1C[C@H]2CC(/C=C/c3ccccc3)=C(C(=O)O)N3C(=O)[C@@H]1[C@@H]23` [Example 57, (E)-(1aS,3aR,6bR)-2-Acetyl-1-oxo-5-styryl-1a,2,3,3a,4,6b-hexahydro-1H-2,6a-diaza-cyclobut[cd]indene-6-carboxylic acid sodium salt (1:1)]: the minimal inhibitory concentration (MIC) in test [1] amounted to 4 µg/mL; in test [2] it was 64 µg/mL.

As to `CC(=O)N1C[C@H]2CC(/C=C/c3ccccn3)=C(C(=O)O)N3C(=O)[C@@H]1[C@@H]23` [Example 58, (E)-(1aS,3aR,6bR)-2-Acetyl-1-oxo-5-(2-pyridin-2-yl-vinyl)-1a,2,3,3a,4,6b-hexahydro-1H-2,6a-diaza-cyclobut[cd]indene-6-carboxylic acid sodium salt (1:1)], the minimum inhibitory concentration (MIC) in test [1] turned out to be 2 µg/mL; in test [2] it was 4 µg/mL.

As for `CC(=O)N1C[C@H]2CC(/C=C/c3ccncc3)=C(C(=O)O)N3C(=O)[C@@H]1[C@@H]23` [Example 59, (E)-(1aS,3aR,6bR)-2-Acetyl-1-oxo-5-(2-pyridin-4-yl-vinyl)-1a,2,3,3a,4,6b-hexahydro-1H-2,6a-diaza-cyclobut[cd]indene-6-carboxylic acid sodium salt (1:1)], the minimum inhibitory concentration (MIC) in test [1] was 1 µg/mL; in test [2] it was 32 µg/mL.

For the compound `CC(=O)N1C[C@H]2CC(/C=C/c3ccc(O)cc3)=C(C(=O)O)N3C(=O)[C@@H]1[C@@H]23` [Example 60, (E)-(1aS,3aR,6bR)-2-Acetyl-1-oxo-5-[2-(4-hydroxy-phenyl)-vinyl]-1a,2,3,3a,4,6b-hexahydro-1H-2,6a-diaza-cyclobut[cd]indene-6-carboxylic acid sodium salt (1:1)], the MIC in test [1] turned out to be 2 µg/mL; in test [2] it was 32 µg/mL.

As to `CC(=O)N1C[C@H]2CC(/C=C/c3ccc4ccccc4n3)=C(C(=O)O)N3C(=O)[C@@H]1[C@@H]23` [Example 61, (E)-(1aS,3aR,6bR)-2-Acetyl-1-oxo-5-(2-quinolin-2-yl-vinyl)-1a,2,3,3a,4,6b-hexahydro-1H-2,6a-diaza-cyclobut[cd]indene-6-carboxylic acid sodium salt (1:1)], the MIC in test [1] and in test [2] was 64 µg/mL each time.

Turning to `CC(=O)N1C[C@H]2CC(/C=C/c3cccnc3)=C(C(=O)O)N3C(=O)[C@@H]1[C@@H]23` [Example 62, (E)-(1aS,3aR,6bR)-2-Acetyl-1-oxo-5-(2-pyridin-3-yl-vinyl)-1a,2,3,3a,4,6b-hexahydro-1H-2,6a-diaza-cyclobut[cd]indene-6-carboxylic acid sodium salt (1:1)], the minimum inhibitory concentration (MIC) in test [1] was 2 µg/mL; in test [2], 8 µg/mL.

`CC(=O)N1C[C@H]2CC(/C=C/c3cnc4ccccc4c3)=C(C(=O)O)N3C(=O)[C@@H]1[C@@H]23` [Example 63, (E)-(1aS,3aR,6bR)-2-Acetyl-1-oxo-5-(2-quinolin-3-yl-vinyl)-1a,2,3,3a,4,6b-hexahydro-1H-2,6a-diaza-cyclobut[cd]indene-6-carboxylic acid sodium salt (1:1)]: the minimal inhibitory concentration (MIC) in test [1] was 0.5 µg/mL; in test [2] it was 64 µg/mL.

Take `O=C(O)C1=C(/C=C/c2ccccn2)C[C@@H]2CN(C(=O)C(F)(F)F)[C@@H]3C(=O)N1[C@H]23` [Example 64, (E)-(1aS,3aR,6bR)-1-Oxo-5-(2-pyridin-2-yl-vinyl)-2-trifluoroacetyl-1a,2,3,3a,4,6b-hexahydro-1H-2,6a-diaza-cyclobut[cd]indene-6-carboxylic acid sodium salt (1:1)]: the MIC in test [1] worked out at 2 µg/mL; in test [2] it was 32 µg/mL.

With `CC(=O)N1C[C@H]2CC(/C=C/c3ccc[n+](Cc4ccccc4)c3)=C(C(=O)[O-])N3C(=O)[C@@H]1[C@@H]23` [Example 66, (E)-(1aS,3aR,6bR)-2-Acetyl-5-[2-(1-benzyl-pyridin-1-ium-3-yl)-vinyl]-1-oxo-1a,2,3,3a,4,6b-hexahydro-1H-2,6a-diaza-cyclobut[cd]indene-6-carboxylate], the MIC in test [1] was found to be 0.25 µg/mL (≈ 0.582 µM); in test [2], 8 µg/mL (≈ 18.6 µM).

On to `CC(=O)N1C[C@H]2CC(/C=C/c3ccc[n+](CC(N)=O)c3)=C(C(=O)[O-])N3C(=O)[C@@H]1[C@@H]23` [Example 67, (E)-(1aS,3aR,6bR)-2-Acetyl-5-[2-(1-carbamoylmethyl-pyridin-1-ium-3-yl)-vinyl]-1-oxo-1a,2,3,3a,4,6b-hexahydro-1H-2,6a-diaza-cyclobut[cd]indene-6-carboxylate], for which the MIC was 0.25 µg/mL (≈ 0.631 µM) in test [1] and 16 µg/mL (≈ 40.4 µM) in test [2].

`CC(=O)N1C[C@H]2CC(/C=C/c3cc4ccccc4[n+](CC(N)=O)c3)=C(C(=O)[O-])N3C(=O)[C@@H]1[C@@H]23` [Example 68, (E)-(1aS,3aR,6bR)-2-Acetyl-5-[2-(1-carbamoylmethyl-quinolin-1-ium-3-yl)-vinyl]-1-oxo-1a,2,3,3a,4,6b-hexahydro-1H-2,6a-diaza-cyclobut[cd]indene-6-carboxylate]: the minimal inhibitory concentration (MIC) in test [1] came out at 0.5 µg/mL (≈ 1.12 µM); in test [2], 16 µg/mL (≈ 35.8 µM).

`CC(=O)N1C[C@H]2CC(/C=C/c3ccc[n+](C/C=C/c4ccccc4)c3)=C(C(=O)[O-])N3C(=O)[C@@H]1[C@@H]23` [Example 69, (1aS,3aR,6bR)-2-Acetyl-1-oxo-5-[(E)-2-[1-[(E)-3-phenylallyl]-pyridin-1-ium-3-yl)-vinyl]-1a,2,3,3a,4,6b-hexahydro-1H-2,6a-diaza-cyclobut[cd]indene-6-carboxylate]: the MIC was found to be 0.25 µg/mL (≈ 0.549 µM) in test [1] and 32 µg/mL (≈ 70.3 µM) in test [2].

`CC(=O)N1C[C@H]2CC(/C=C/c3ccc[n+](CC(=O)Nc4ccc(O)cc4)c3)=C(C(=O)[O-])N3C(=O)[C@@H]1[C@@H]23` [Example 70, (E)-(1aS,3aR,6bR)-2-Acetyl-5-[2-[1-[(4-hydroxyphenylcarbamoyl)-methyl]-pyridin-1-ium-3-yl)-vinyl]-1-oxo-1a,2,3,3a,4,6b-hexahydro-1H-2,6a-diaza-cyclobut[cd]indene-6-carboxylate]: the MIC in test [1] worked out at 0.25 µg/mL (≈ 0.512 µM); in test [2] it was 8 µg/mL (≈ 16.4 µM).

As for `CC(=O)N1C[C@H]2CC(/C=C/c3ccc[n+](Cc4ccc(OC(F)(F)F)cc4)c3)=C(C(=O)[O-])N3C(=O)[C@@H]1[C@@H]23` [Example 71], the minimum inhibitory concentration (MIC) in test [1] stood at 0.5 µg/mL (≈ 0.974 µM); in test [2] it was 64 µg/mL (≈ 125 µM).
